Reference: the supplement of paper PMC10307832

Legend:
Experiment in all cases: relative viability (nuclei count vs DMSO), 5 days (fraction); higher = more cells survive
Conditions in all cases: main component drawn
Bleomycin + Vorinostat = compound: CC1=C(N=C(N=C1N)[C@H](CC(=O)N)NC[C@@H](C(=O)N)N)C(=O)N[C@@H]([C@H](C2=CN=CN2)OC3C(C(C(C(O3)CO)O)O)OC4C(C(C(C(O4)CO)O)OC(=O)N)O)C(=O)N[C@H](C)[C@H]([C@H](C)C(=O)N[C@@H]([C@@H](C)O)C(=O)NCCC5=NC(=CS5)C6=NC(=CS6)C(=O)NCCC[S+](C)C)O [Bleomycin] + O=C(CCCCCCC(=O)Nc1ccccc1)NO [Vorinostat] (partner 1 µM)
Outline: (§1)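 Lung cancer cell lines in 1536-well plates got either a single drug or a fixed anchor-drug dose together with five library-drug doses (not always all listed) in √10 steps, by pin tool, on the day after seeding. Nuclei were counted after 5 days, and relative viability is the treated-to-vehicle ratio of nuclei counts. Values are medians of duplicate plates.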

Bleomycin + Lapatinib = compound: CC1=C(N=C(N=C1N)[C@H](CC(=O)N)NC[C@@H](C(=O)N)N)C(=O)N[C@@H]([C@H](C2=CN=CN2)OC3C(C(C(C(O3)CO)O)O)OC4C(C(C(C(O4)CO)O)OC(=O)N)O)C(=O)N[C@H](C)[C@H]([C@H](C)C(=O)N[C@@H]([C@@H](C)O)C(=O)NCCC5=NC(=CS5)C6=NC(=CS6)C(=O)NCCC[S+](C)C)O [Bleomycin] + CS(=O)(=O)CCNCc1ccc(-c2ccc3ncnc(Nc4ccc(OCc5cccc(F)c5)c(Cl)c4)c3c2)o1 [Lapatinib] (partner 2 µM)
Outline: as §1

Bleomycin + Pemetrexed = compound: CC1=C(N=C(N=C1N)[C@H](CC(=O)N)NC[C@@H](C(=O)N)N)C(=O)N[C@@H]([C@H](C2=CN=CN2)OC3C(C(C(C(O3)CO)O)O)OC4C(C(C(C(O4)CO)O)OC(=O)N)O)C(=O)N[C@H](C)[C@H]([C@H](C)C(=O)N[C@@H]([C@@H](C)O)C(=O)NCCC5=NC(=CS5)C6=NC(=CS6)C(=O)NCCC[S+](C)C)O [Bleomycin] + Nc1nc2[nH]cc(CCc3ccc(C(=O)N[C@@H](CCC(=O)O)C(=O)O)cc3)c2c(=O)[nH]1 [Pemetrexed] (partner 0.2 µM)
Outline: as §1

Bleomycin + OSI-027 = compound: CC1=C(N=C(N=C1N)[C@H](CC(=O)N)NC[C@@H](C(=O)N)N)C(=O)N[C@@H]([C@H](C2=CN=CN2)OC3C(C(C(C(O3)CO)O)O)OC4C(C(C(C(O4)CO)O)OC(=O)N)O)C(=O)N[C@H](C)[C@H]([C@H](C)C(=O)N[C@@H]([C@@H](C)O)C(=O)NCCC5=NC(=CS5)C6=NC(=CS6)C(=O)NCCC[S+](C)C)O [Bleomycin] + COc1cccc2cc(-c3nc([C@H]4CC[C@H](C(=O)O)CC4)n4ncnc(N)c34)[nH]c12 [OSI-027] (partner 0.5 µM)
Outline: as §1

UMC-11
relative viability (Bleomycin + Vorinostat; first compound 0.01 µM): 0.364
relative viability (Bleomycin + Vorinostat; first compound 0.03162 µM): 0.346
relative viability (Bleomycin + Vorinostat; first compound 0.1 µM): 0.311
relative viability (Bleomycin + Vorinostat; first compound 0.3162 µM): 0.278
relative viability (Bleomycin + Vorinostat; first compound 1 µM): 0.232
relative viability (Bleomycin + Lapatinib; first compound 0.01 µM): 0.879
relative viability (Bleomycin + Lapatinib; first compound 0.03162 µM): 0.819
relative viability (Bleomycin + Lapatinib; first compound 0.1 µM): 0.971
relative viability (Bleomycin + Lapatinib; first compound 0.3162 µM): 0.737
relative viability (Bleomycin + Lapatinib; first compound 1 µM): 0.503
relative viability (Bleomycin + Pemetrexed; first compound 0.01 µM): 0.74
relative viability (Bleomycin + Pemetrexed; first compound 0.03162 µM): 0.756
relative viability (Bleomycin + Pemetrexed; first compound 0.1 µM): 0.74
relative viability (Bleomycin + Pemetrexed; first compound 0.3162 µM): 0.598
relative viability (Bleomycin + Pemetrexed; first compound 1 µM): 0.414
relative viability (Bleomycin + OSI-027; first compound 0.01 µM): 0.403
relative viability (Bleomycin + OSI-027; first compound 0.03162 µM): 0.497
relative viability (Bleomycin + OSI-027; first compound 0.1 µM): 0.482
relative viability (Bleomycin + OSI-027; first compound 0.3162 µM): 0.393
relative viability (Bleomycin + OSI-027; first compound 1 µM): 0.353
